Measured values published in patent US12384771B2, “Pleuromutilin derivative containing thiazole-pyridine benzyl quaternary ammonium salt side chain and preparation method and use thereof” (SHAANXI UNIVERSITY OF SCIENCE AND TECHNOLOGY, priority 2022, dated 2025).
Values after ≈ are worked out from the molar mass of the structure shown. Counter-ions that a name gives are not always drawn. Like-named read-outs stand apart in the source and are kept apart here.

Tests used:
[1] = system: multidrug-resistant Klebsiella pneumoniae (MDR-KP) 18-754; test: MIC, clinical drug-resistant bacteria; assay type: cell-based
Method: (§1) The minimum inhibitory concentration (MIC) of the pleuromutilin derivative containing thiazole-pyridine benzyl quaternary ammonium salt side chain was tested with moxifloxacin as a positive control (purchased from Shanghai Macklin Biochemical Technology Co., Ltd.) using a microbroth dilution method. At the same time, the pleuromutilin derivative containing thiazole-pyridine benzyl quaternary ammonium salt side chain of the invention was compared with the marketed pleuromutilin antibiotics, such as retapamulin (purchased from Nanjing Chemlin Chemical Industry Co., Ltd.), tiamulin (purchased from Shanghai Yuanye Bio-Technology Co., Ltd) and valnemulin (purchased from Shanghai Acmec Biochemical Co., Ltd), in order to screen out pleuromutilin derivatives with better activity.
(§2) Clinical resistant bacteria include multidrug-resistant Pseudomonas aeruginosa (MDR-PA) 18-993, 18-756 and 18-126, multidrug-resistant Klebsiella pneumoniae (MDR-KP) 18-893, 18-754 and 18-1482, methicillin-resistant Staphylococcus aureus (MRSA) 18-171, 18-209 and 18-575, vancomycin-resistant Enterococcus faecalis (VRE) 18-94, 18-80 and 18-507, and carbapenem-resistant Acinetobacter baumannii (CR-AB) 18-184, 18-560 and 18-882, all the clinical drug-resistant strains were from Huashan Hospital, Fudan University.

[2] = system: methicillin-resistant Staphylococcus aureus (MRSA) 18-171; test: MIC, clinical drug-resistant bacteria; assay type: cell-based
Method: as §1, §2

[3] = system: multidrug-resistant Pseudomonas aeruginosa (MDR-PA) 18-993; test: MIC, clinical drug-resistant bacteria; assay type: cell-based
Method: as §1, §2

[4] = system: carbapenem-resistant Acinetobacter baumannii (CR-AB) 18-882; test: MIC, clinical drug-resistant bacteria; assay type: cell-based
Method: as §1, §2

[5] = system: multidrug-resistant Klebsiella pneumoniae (MDR-KP) 18-1482; test: MIC, clinical drug-resistant bacteria; assay type: cell-based
Method: as §1, §2

[6] = system: methicillin-resistant Staphylococcus aureus (MRSA) 18-209; test: MIC, clinical drug-resistant bacteria; assay type: cell-based
Method: as §1, §2

[7] = system: multidrug-resistant Pseudomonas aeruginosa (MDR-PA) 18-756; test: MIC, clinical drug-resistant bacteria; assay type: cell-based
Method: as §1, §2

[8] = system: multidrug-resistant Pseudomonas aeruginosa (MDR-PA) 18-126; test: MIC, clinical drug-resistant bacteria; assay type: cell-based
Method: as §1, §2

[9] = system: vancomycin-resistant Enterococcus faecalis (VRE) 18-94; test: MIC, clinical drug-resistant bacteria; assay type: cell-based; details: read-out: Minimum inhibitory concentration against clinical drug-resistant bacteria
Method: as §1, §2

[10] = system: vancomycin-resistant Enterococcus faecalis (VRE) 18-507; test: MIC, clinical drug-resistant bacteria; assay type: cell-based; details: read-out: Minimum inhibitory concentration against clinical drug-resistant bacteria
Method: as §1, §2

[11] = system: carbapenem-resistant Acinetobacter baumannii (CR-AB) 18-184; test: MIC, clinical drug-resistant bacteria; assay type: cell-based
Method: as §1, §2

[12] = system: carbapenem-resistant Acinetobacter baumannii (CR-AB) 18-560; test: MIC, clinical drug-resistant bacteria; assay type: cell-based
Method: as §1, §2

[13] = system: vancomycin-resistant Enterococcus faecalis (VRE) 18-80; test: MIC, clinical drug-resistant bacteria; assay type: cell-based; details: read-out: Minimum inhibitory concentration against clinical drug-resistant bacteria
Method: as §1, §2

[14] = system: multidrug-resistant Klebsiella pneumoniae (MDR-KP) 18-893; test: MIC, clinical drug-resistant bacteria; assay type: cell-based
Method: as §1, §2

[15] = system: methicillin-resistant Staphylococcus aureus (MRSA) 18-575; test: MIC, clinical drug-resistant bacteria; assay type: cell-based
Method: as §1, §2

[16] = physchem; details: thermodynamic from solid
Method: Experimental method: representative compounds 2, 4 and 7 were selected for solubility determination, and retapamulin hydrochloride was used as a control. 1 mg of each sample was taken and quantitatively dissolved in a 10 mL volumetric flask, and the absorption peak area was measured by a high-performance liquid chromatography; then, the saturated solutions of the representative compounds 2, 4 and 7 and the control drug retapamulin were diluted 10-fold, and the absorption peak area was determined by HPLC; their respective solubility was obtained by calculating the absorption peak area.
The experimental instrument was Shimadzu LC-16, the chromatographic column was Hypersil C18 ODS (4.6×250 mm×5 μm), the flow rate was 1.0 mL/min, the detection wavelength was 300 nm, and the mobile phase was 0.05 mol/L of aqueous acetic acid solution:acetonitrile=30:70.

[17] = system: Staphylococcus aureus ATCC 25923; test: MIC, microbroth dilution, standard strains; assay type: cell-based
Method: (§3) The minimum inhibitory concentration (MIC) of the pleuromutilin derivative containing thiazole-pyridine benzyl quaternary ammonium salt side chain was tested with moxifloxacin as a positive control (purchased from Shanghai Macklin Biochemical Technology Co., Ltd.) using a microbroth dilution method.
(§4) Standard strains include gram-positive bacteria: Staphylococcus epidermidis ATCC 12228, Staphylococcus aureus ATCC 29213, ATCC 25923 and methicillin-resistant Staphylococcus aureus ATCC 33591; gram-negative bacteria: Salmonella ATCC 14028, Acinetobacter baumannii ATCC 19606, Escherichia coli ATCC 25922 and CMCC 44103, all the strains were purchased from the American Type Culture Collection.

[18] = system: methicillin-resistant Staphylococcus aureus ATCC 33591; test: MIC, microbroth dilution, standard strains; assay type: cell-based
Method: as §3, §4

[19] = system: Salmonella ATCC 14028; test: MIC, microbroth dilution, standard strains; assay type: cell-based
Method: as §3, §4

[20] = system: Escherichia coli ATCC 25922; test: MIC, microbroth dilution, standard strains; assay type: cell-based
Method: as §3, §4

[21] = system: Staphylococcus epidermidis ATCC 12228; test: MIC, microbroth dilution, standard strains; assay type: cell-based
Method: as §3, §4

[22] = system: Staphylococcus aureus ATCC 29213; test: MIC, microbroth dilution, standard strains; assay type: cell-based
Method: as §3, §4

[23] = system: Escherichia coli CMCC 44103; test: MIC, microbroth dilution, standard strains; assay type: cell-based
Method: as §3, §4

[24] = system: Acinetobacter baumannii ATCC 19606; test: MIC, microbroth dilution, standard strains; assay type: cell-based
Method: as §3, §4

[25] = MDR-KP 18-754, read-out: Minimum inhibitory concentration against clinical drug-resistant bacteria
[26] = MRSA 18-171, read-out: Minimum inhibitory concentration against clinical drug-resistant bacteria
[27] = MDR-PA 18-993, read-out: Minimum inhibitory concentration against clinical drug-resistant bacteria
[28] = CR-AB 18-882, read-out: Minimum inhibitory concentration against clinical drug-resistant bacteria
[29] = MDR-KP 18-1482, read-out: Minimum inhibitory concentration against clinical drug-resistant bacteria
[30] = MRSA 18-209, read-out: Minimum inhibitory concentration against clinical drug-resistant bacteria
[31] = MDR-PA 18-756, read-out: Minimum inhibitory concentration against clinical drug-resistant bacteria
[32] = MDR-PA 18-126, read-out: Minimum inhibitory concentration against clinical drug-resistant bacteria
[33] = CR-AB 18-184, read-out: Minimum inhibitory concentration against clinical drug-resistant bacteria
[34] = CR-AB 18-560, read-out: Minimum inhibitory concentration against clinical drug-resistant bacteria
[35] = MDR-KP 18-893, read-out: Minimum inhibitory concentration against clinical drug-resistant bacteria
[36] = MRSA 18-575, read-out: Minimum inhibitory concentration against clinical drug-resistant bacteria
[37] = pH 1.5, simulated gastric fluid
[38] = ATCC25923, ATCC 25923, read-out: Minimum inhibitory concentration
[39] = ATCC33591, ATCC 33591, read-out: Minimum inhibitory concentration
[40] = ATCC14028, ATCC 14028, read-out: Minimum inhibitory concentration
[41] = ATCC25922, ATCC 25922, read-out: Minimum inhibitory concentration
[42] = ATCC12228, ATCC 12228, read-out: Minimum inhibitory concentration
[43] = ATCC29213, ATCC 29213, read-out: Minimum inhibitory concentration
[44] = CMCC44103, CMCC 44103, read-out: Minimum inhibitory concentration
[45] = ATCC19606, ATCC 19606, read-out: Minimum inhibitory concentration
[46] = read-out: Minimum inhibitory concentration against clinical drug-resistant bacteria
[47] = MRSA, read-out: Minimum inhibitory concentration against clinical drug-resistant bacteria

For `C=C[C@]1(C)C[C@@H](OC(=O)CSc2nc(-c3cc[n+](Cc4ccc(C)cc4)cc3)cs2)[C@]2(C)[C@H](C)CC[C@]3(CCC(=O)[C@H]32)[C@@H](C)[C@@H]1O` [Compound 2, 1-(4-Methylbenzyl)-4-(2-((2-((8-hydroxy-4,7,9,12-tetramethyl-3-oxo-7-vinyldecahydro-4,9a-propancyclopent[8]cyclen-5-yl)oxy)-2-oxoethyl)thio)thiazol-4-yl)pyridyl bromide salt], the MIC [1, 25] was 32 µg/mL, the MIC [2, 26] was 4 µg/mL and the MIC [3, 27] was 128 µg/mL. For the same compound, the MIC [4, 28] was 8 µg/mL, the MIC [5, 29] was 64 µg/mL and the MIC [6, 30] was 128 µg/mL. The MIC [7, 31] was 128 µg/mL, the MIC [8, 32] was 64 µg/mL and the MIC ([9]; VRE 18-94) was > 128 µg/mL. The MIC ([10]; VRE 18-507) was > 128 µg/mL, the MIC [11, 33] was 16 µg/mL and the MIC [12, 34] was > 128 µg/mL. The MIC ([13]; VRE 18-80) was 2 µg/mL, the MIC [14, 35] was 16 µg/mL and the MIC [15, 36] was > 128 µg/mL. For the same compound, the solubility ([16]; organic solvent or mixture) was 13200 µg/mL, the solubility [16, 37] was 2760 µg/mL and the solubility ([16]; pH 7, water) was 2020 µg/mL. It also gave an MIC [17, 38] of 0.0625 µg/mL, an MIC [18, 39] of 1 µg/mL and an MIC [19, 40] of 2 µg/mL. The MIC [20, 41] was 0.0625 µg/mL, the MIC [21, 42] was 1 µg/mL and the MIC [22, 43] was 0.0625 µg/mL. For the same compound, the MIC [23, 44] was 0.5 µg/mL and the MIC [24, 45] was 1 µg/mL.
`C=C[C@]1(C)C[C@@H](OC(=O)CSc2nc(-c3cc[n+](Cc4ccc(OC)cc4)cc3)cs2)[C@]2(C)[C@H](C)CC[C@]3(CCC(=O)[C@H]32)[C@@H](C)[C@@H]1O` [Compound 4, 1-(4-(methoxy)benzyl)-4-(2-(8-hydroxy-4,7,9,12-tetramethyl-3-oxo-7-vinyldecahydro-4,9a-propancyclopent[8]cyclen-5-yl)oxy)-2-oxoethyl)thiazol-4-yl)pyridyl bromide salt] showed an MIC [1, 25] of 32 µg/mL, an MIC [2, 26] of 16 µg/mL and an MIC [3, 27] of 64 µg/mL. It also gave an MIC [4, 28] of 8 µg/mL, an MIC [5, 29] of 64 µg/mL and an MIC [6, 30] of 128 µg/mL. For the same compound, the MIC [7, 31] was > 128 µg/mL, the MIC [8, 32] was 64 µg/mL and the MIC ([9]; VRE 18-94) was > 128 µg/mL. For the same compound, the MIC ([10]; VRE 18-507) was > 128 µg/mL, the MIC [11, 33] was 64 µg/mL and the MIC [12, 34] was > 128 µg/mL. The MIC ([13]; VRE 18-80) was 2 µg/mL, the MIC [14, 35] was 64 µg/mL and the MIC [15, 36] was > 128 µg/mL. It also gave a solubility ([16]; organic solvent or mixture) of 11900 µg/mL, a solubility [16, 37] of 3120 µg/mL and a solubility ([16]; pH 7, water) of 2320 µg/mL. It also gave an MIC [17, 38] of 0.5 µg/mL, an MIC [18, 39] of 1 µg/mL and an MIC [19, 40] of 0.5 µg/mL. For the same compound, the MIC [20, 41] was 0.5 µg/mL, the MIC [21, 42] was 1 µg/mL and the MIC [22, 43] was 0.5 µg/mL. For the same compound, the MIC [23, 44] was 1 µg/mL and the MIC [24, 45] was 2 µg/mL.
`C=C[C@]1(C)C[C@@H](OC(=O)CS[C@@H]2C[C@H]3CC[C@@H](C2)N3C)[C@]2(C)[C@H](C)CC[C@]3(CCC(=O)[C@H]32)[C@@H](C)[C@@H]1O` [Retapamulin, retapamulin, reference compound] showed an MIC [1, 46] of 128 µg/mL (≈ 247 µM), an MIC [2, 47] of 128 µg/mL (≈ 247 µM) and an MIC [3, 46] of 128 µg/mL (≈ 247 µM). It also gave an MIC [4, 46] of 64 µg/mL (≈ 124 µM), an MIC [5, 46] of 64 µg/mL (≈ 124 µM) and an MIC [6, 47] of 128 µg/mL (≈ 247 µM). For the same compound, the MIC [7, 46] was > 128 µg/mL, the MIC [8, 46] was 128 µg/mL (≈ 247 µM) and the MIC [9] was > 128 µg/mL. For the same compound, the MIC [10] was > 128 µg/mL, the MIC [11, 46] was 128 µg/mL (≈ 247 µM) and the MIC [12, 46] was 128 µg/mL (≈ 247 µM). For the same compound, the MIC [13] was > 128 µg/mL, the MIC [14, 46] was 64 µg/mL (≈ 124 µM) and the MIC [15, 47] was > 128 µg/mL. It also gave an MIC ([17]; ATCC25923, read-out: Minimum inhibitory concentration) of 4 µg/mL (≈ 7.73 µM), an MIC ([18]; ATCC33591, read-out: Minimum inhibitory concentration) of 32 µg/mL (≈ 61.8 µM) and an MIC ([19]; ATCC14028, read-out: Minimum inhibitory concentration) of 128 µg/mL (≈ 247 µM). For the same compound, the MIC ([20]; ATCC25922, read-out: Minimum inhibitory concentration) was 32 µg/mL (≈ 61.8 µM), the MIC ([21]; ATCC12228, read-out: Minimum inhibitory concentration) was 32 µg/mL (≈ 61.8 µM) and the MIC ([22]; ATCC29213, read-out: Minimum inhibitory concentration) was 4 µg/mL (≈ 7.73 µM). It also gave an MIC ([23]; CMCC44103, read-out: Minimum inhibitory concentration) of 32 µg/mL (≈ 61.8 µM) and an MIC ([24]; ATCC19606, read-out: Minimum inhibitory concentration) of 16 µg/mL (≈ 30.9 µM).
